According to patent US7098336B2, “FXR NR1H4 nuclear receptor binding compounds” (Phenex Pharmaceuticals AG, priority 2001, dated 2006):
pEC50: −log10 of the molar value. Like-named read-outs stand apart in the source and are kept apart here.

Key:
human FXR alpha (NR1H4) [1] = target: T1, human FXR alpha (NR1H4) (Homo sapiens, UniProt Q96RI1); test: In vitro LANCE TR-FRET screening for FXR binding to coactivator TIF2; assay type: biochemical; parameters: EC50 AVG; other: relative to CDCA control agonist; fused on or other part: GST at the N-terminus (pDest15); conditions: for Emax: read-out: EFFIC AVG (average efficacy, % activity relative to CDCA control agonist)
T1 sequence (Q96RI1 1-472 isoform Q96RI1-2): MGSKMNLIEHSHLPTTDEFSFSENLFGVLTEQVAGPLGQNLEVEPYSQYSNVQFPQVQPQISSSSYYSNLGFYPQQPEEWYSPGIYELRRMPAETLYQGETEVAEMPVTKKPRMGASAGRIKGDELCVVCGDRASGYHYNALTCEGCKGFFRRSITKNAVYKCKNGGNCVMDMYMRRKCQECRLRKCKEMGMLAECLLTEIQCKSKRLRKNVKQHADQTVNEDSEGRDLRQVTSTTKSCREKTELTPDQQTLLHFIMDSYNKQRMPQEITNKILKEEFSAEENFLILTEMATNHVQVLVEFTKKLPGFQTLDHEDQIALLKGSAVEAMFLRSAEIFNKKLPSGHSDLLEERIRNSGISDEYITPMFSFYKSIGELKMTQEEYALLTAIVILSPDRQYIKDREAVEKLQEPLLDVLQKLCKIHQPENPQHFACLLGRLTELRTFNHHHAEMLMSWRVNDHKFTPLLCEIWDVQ
Text: For screening purposes a fragment of the open reading frame of human FXR alpha (NR1H4-(Acc. No: AF384555)) encoding aminoacids 187–472 was amplified by standard RT PCR procedures (see figures; SEQ ID NO. 1 and 2). Starting material was total RNA derived from human liver. The resulting cDNA obtained after reverse transcription was subsequently cloned using the Gateway™ recombination technology (Invitrogen, USA) into the expression plasmid pDest15 (Invitrogen, USA). This construct was used to express a recombinant GST-FXR fusion protein in E. coli (BL21 strain). A pDEST 17 derivative clone harboring an additional sequence encoding amino acids 548–878 of human TIF2 (Acc. No: XM—011633 RefSeq) was constructed using Gateway™ recombination technology (Invitrogen, USA) in order to obtain a construct which was used to express recombinant His-tagged TIF2 fragment could be expressed in E. coli. For E. coli expression of both constructs, plasmid DNA was transformed into chemically competent E. coli BL21 (Invitrogen, USA) and cells were grown to an OD600 of 0.4–0.7 before expression was induced by addition of 0.5 mM IPTG according instructions of the manufacturer (Invitrogen). After induction for 8 hours at 30° C. cells were harvested by centrifugation for 10 minutes at 5000×g. Fusion proteins were affinity purified using Glutathion sepharose (Pharmacia) or Ni-NTA Agarose (QIAGEN) according to the instructions of the respective manufacturer. Recombinant proteins were dialyzed against 20 mM Tris/HCL pH 7.9; 60 mM KCl; 5 mM MgCl2; 1 mM DTT, 0.2 mM PMSF; 10% glycerol. The TIF2 fragment was subsequently biotinylated by addition of 40–120 μl of a Biotinamidocaproate N-Hydroxysuccinimide-ester (Sigma) solution (20 mg/ml in DMSO). Overhead rotating samples were incubated for 2 hours at room temperature. Unincorporated label was then separated using G25 Gel filtration chromatography (Pharmacia Biotech, Sweden). Protein containing fractions from the column were pooled and tested for activity in the assay as described below.
(§1) For screening of compound libraries as provided for by the methods shown below in the examples for substances which influence the FXR/Tif 2 interaction, the Perkin Elmer LANCE technology was applied. This method relies on the binding dependent energy transfer from a donor to an acceptor fluorophore attached to the binding partners of interest. For ease of handling and reduction of background from compound fluorescence LANCE technology makes use of generic fluorophore labels and time resoved detection (for detailed description see Hemmilä I, Blomberg K and Hurskainen P, Time-resolved resonance energy transfer (TR-FRET) principle in LANCE, Abstract of Papers Presented at the 3 rd Annual Conference of the Society for Biomolecular Screening, September, California (1997).
For screening, 20–200 ng of biotinylated Tif 2 fragment and 10–200 ng of GST-FXR fragment were combined with 0.5–2 nM LANCE Eu-(W1024) labelled anti-GST antibody (Perkin Elmer) and 0.5–2 μg of Highly fluorescent APC-labelled streptavidin (Perkin Elmer) in the presence of 50 μM of individual compounds to be screened in a total volume of 25 μl of 20 mM Tris/HCl pH 7.9; 60 mM KCl; 5 mM MgCl2; 160 ng/μl BSA. DMSO content of the samples was kept below 4%. Samples were incubated for a minimum of 60 minutes in the dark at room temperature in FIA-Plates black 384 well med. binding (Greiner).
(§2) The LANCE signal was detected by a Perkin Elmer VICTOR2V™ Multilabel Counter applying the detection parameters listed in Table 1 below. The results were visualized by plotting the ratio between the emitted light at 665 nm and at 615 nm. For every batch of recombinant proteins amount of proteins and labeling reagents giving the most sensitive detection of hits was determined individually by analysis of dose response curves for chenodeoxycholic acid.

full length human FXR = target: T2, full length human FXR (Homo sapiens, UniProt Q96RI1); test: Cellular gene reporter assay in stable HEK293-FXR reporter cell line (luciferase); assay type: cell-based; conditions: HEK293-FXR reporter cells, 16 hours incubation, FIG. 3
T2 construct: expressed in transfected cells; host or cells: HEK293, stably transfected with pTRexDest30-hFXR, pTRexDest30-hRXR and pGL2promoter-FXRRE
T2 sequence (Q96RI1 1-472 isoform Q96RI1-2): T1 sequence (Q96RI1 1-472 isoform Q96RI1-2)
T2 sequence (P19793 1-462 partner): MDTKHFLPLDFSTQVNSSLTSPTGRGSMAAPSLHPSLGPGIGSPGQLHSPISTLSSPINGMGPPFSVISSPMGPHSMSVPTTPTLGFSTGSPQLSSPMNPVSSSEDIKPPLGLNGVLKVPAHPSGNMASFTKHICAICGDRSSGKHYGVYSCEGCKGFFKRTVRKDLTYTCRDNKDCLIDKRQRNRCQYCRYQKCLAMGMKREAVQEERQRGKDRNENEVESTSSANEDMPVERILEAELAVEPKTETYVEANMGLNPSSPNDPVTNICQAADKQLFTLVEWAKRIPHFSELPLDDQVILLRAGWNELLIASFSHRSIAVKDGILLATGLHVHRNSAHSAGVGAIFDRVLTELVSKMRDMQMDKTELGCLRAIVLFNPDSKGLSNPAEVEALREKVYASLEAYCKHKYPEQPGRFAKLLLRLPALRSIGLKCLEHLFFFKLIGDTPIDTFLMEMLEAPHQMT
Text: This example illustrates that a compound according to the invention can mediate transactivation of FXR mediated transcription in a HEK293 reporter cell line. Experiments shown were done with MOLSTRUCTURE LN 6691 (see structural formula below).
Stable HEK293-FXR reporter cell lines were generated by stably transfecting with the pTRexDest30 (Invitrogen) derivatives pTRexDest30-hFXR, pTRexDest30-hRXR and the pGL2promoter (Promega) derivative pGL2promoter-FXRRE. The full length human FXR (accession U68233) and the full length human RXRα (accession P19793) were cloned into the pTRexDest30 applying the manufacturer protocols for the Gateway™ system (Invitrogen).
The FXR response elements were (upper case and underlined) 5′-cccaGGGTGAaTAACCTcggggctctgtccctccaatcccaGGGTGAaTAACCTcggg 3′ (SEQ ID NO. 5) was created from the human IBAB-P promoter (Grober et al 1999, JBC 274, pp. 29749–29754) and integrated into the reporter plasmid pGL2promoter (Promega) according to standard methods known to those skilled in the art. […] Luciferase reporter activity were determined in triplicates from extracts of cells after incubating cells in culture medium (DMEM [Gibco-BRL]+10% FCS [PAA laboratories]) for 16 hours (5% CO2, 37° C.) containing 0.5% DMSO (control) or 0.5% DMSO with increasing concentrations of LN6691 (FIG. 3).

human FXR alpha (NR1H4) [2] = target: T1, human FXR alpha (NR1H4); test: In vitro LANCE TR-FRET screening for FXR binding to coactivator TIF2; assay type: biochemical
Text: For screening purposes a fragment of the open reading frame of human FXR alpha (NR1H4-(Acc. No: AF384555)) encoding aminoacids 187–472 was amplified by standard RT PCR procedures (see figures; SEQ ID NO. 1 and 2). Starting material was total RNA derived from human liver. The resulting cDNA obtained after reverse transcription was subsequently cloned using the Gateway™ recombination technology (Invitrogen, USA) into the expression plasmid pDest15 (Invitrogen, USA). This construct was used to express a recombinant GST-FXR fusion protein in E. coli (BL21 strain). A pDEST 17 derivative clone harboring an additional sequence encoding amino acids 548–878 of human TIF2 (Acc. No: XM—011633 RefSeq) was constructed using Gateway™ recombination technology (Invitrogen, USA) in order to obtain a construct which was used to express recombinant His-tagged TIF2 fragment could be expressed in E. coli. […]
as §1, with “This method relies on the binding dependent energy transfer from a donor to an acceptor fluorophore attached to the binding partners of interest.” left out, “(1997). […]” for “(1997).”
as §2, with “The results were visualized by plotting the ratio between the emitted light at 665 nm and at 615 nm.” left out

[3] = established according to Example 1 (FRET), unit inferred, b76 prints 0.16 μM for the same value, read-out: EC50 AVG

Row | pEC50 (human FXR alpha (NR1H4) [1]; [3]) | Emax (human FXR alpha (NR1H4) [1]) | active as agonists of the NR1H4 human nuclear receptor (human FXR alpha (NR1H4) [2]) | Compound | further results
1 | 5.96 | 134% | – | COc1ccccc1-c1cc(-c2cc(C)ccc2O)nc(NCC2CCC(C(=O)O)CC2)n1 (stereo not shown) [LN0000002683] | –
2 | – | 125% | – | COc1ccccc1-c1cc(-c2ccccc2O)nc(NCC2CCC(C(=O)O)CC2)n1 (stereo not shown) [LN0000006691] | pEC50 (human FXR alpha (NR1H4) [1]; read-out: EC50 at FXR (half-maximal effective concentration)): 6.80; relative efficacy compared to GW4064 as control compound (full length human FXR): about 110%
3 | – | – | – | COc1ccccc1-c1cc(-c2ccccc2O)nc(NC[C@H]2CC[C@H](C(=O)O)CC2)n1 [LN0000006691] | pEC50 (full length human FXR): 5.89
4 | 5.78 | 111% | – | O=C(O)C1CCC(CNc2nc(-c3cccs3)cc(-c3ccccc3O)n2)CC1 (stereo not shown) [LN0000006692] | –
5 | 6.28 | 91% | – | O=C(O)C1CCC(CNc2nc(-c3ccccc3O)cc(-c3ccccc3F)n2)CC1 (stereo not shown) [LN0000007265] | –
6 | – | – | active as agonists | O=C(O)C1CCC(CNc2nc(-c3ccccc3O)cc(-c3ccccc3F)n2)CC1 (stereo not shown) [formula (5)] | –
7 | – | – | active as agonists | COc1ccccc1-c1cc(-c2cc(C)ccc2O)nc(NC[C@H]2CC[C@H](C(=O)O)CC2)n1 [formula (6)] | –
8 | – | – | active as agonists | O=C(O)[C@H]1CC[C@H](CNc2nc(-c3cccs3)cc(-c3ccccc3O)n2)CC1 [formula (7)] | –
